Test results: article PMC10487961, “Antiplatelet Effects of Selected Xanthine-Based Adenosine A2A and A2B Receptor Antagonists Determined in Rat Blood” (International Journal of Molecular Sciences, 2023)
Like-named read-outs stand apart in the source and are kept apart here.

What was measured:
[1] = test system: lipid peroxidation in rat brain homogenate; assay: In vitro lipid peroxidation (MDA/TBARS test)
Procedure: The lipid peroxidation was measured by the formation of thiobarbituric acid reactive substances (TBARS) in rat brain homogenate, which was made in 0.9% NaCl containing 10 mg tissue per mL [60]. Briefly, rat brain homogenates (1 mL) were incubated at 37 °C for 5 min with 10 µL of a test compound or vehicle. Lipid peroxidation was initiated with the addition of 50 µL of 0.5 mmol/L FeCl2 and 50 µL of 2 mmol/L ascorbic acid. After 30 min of incubation, the reaction was stopped by adding 0.1 mL of 0.2% butylhydroxytoluene. Thiobarbituric acid reagent was then added, and the mixture was heated for 15 min in a boiling water bath. The TBARS was extracted using n-butanol and measured at 532 nm. The amount of TBARS was quantified using a standard curve of malondialdehyde (1,1,3,3-tetraethoxypropane was used as standard).
The compound used to compare the results was carvedilol. Its activity was tested in the concentration range of 10–3000 μM (Figure 8). The reference was the maximum activity of carvedilol at the highest concentration (100%). Test compounds were assayed at concentrations of 100 and 1000 µM. The obtained results were then compared to the activity of the reference compound at identical concentrations (1000 µM).

human recombinant PDE3A = molecular target: T1, human recombinant PDE3A (Homo sapiens, UniProt Q14432); assay: PDE-Glo activity inhibition test, PDE3A; format: biochemical; conditions: for IC50: human recombinant PDE3A, cAMP substrate, read-out: IC50 (CV%) PDE3A
T1 construct: purchased SignalChem
T1 sequence (Q14432 whole entry): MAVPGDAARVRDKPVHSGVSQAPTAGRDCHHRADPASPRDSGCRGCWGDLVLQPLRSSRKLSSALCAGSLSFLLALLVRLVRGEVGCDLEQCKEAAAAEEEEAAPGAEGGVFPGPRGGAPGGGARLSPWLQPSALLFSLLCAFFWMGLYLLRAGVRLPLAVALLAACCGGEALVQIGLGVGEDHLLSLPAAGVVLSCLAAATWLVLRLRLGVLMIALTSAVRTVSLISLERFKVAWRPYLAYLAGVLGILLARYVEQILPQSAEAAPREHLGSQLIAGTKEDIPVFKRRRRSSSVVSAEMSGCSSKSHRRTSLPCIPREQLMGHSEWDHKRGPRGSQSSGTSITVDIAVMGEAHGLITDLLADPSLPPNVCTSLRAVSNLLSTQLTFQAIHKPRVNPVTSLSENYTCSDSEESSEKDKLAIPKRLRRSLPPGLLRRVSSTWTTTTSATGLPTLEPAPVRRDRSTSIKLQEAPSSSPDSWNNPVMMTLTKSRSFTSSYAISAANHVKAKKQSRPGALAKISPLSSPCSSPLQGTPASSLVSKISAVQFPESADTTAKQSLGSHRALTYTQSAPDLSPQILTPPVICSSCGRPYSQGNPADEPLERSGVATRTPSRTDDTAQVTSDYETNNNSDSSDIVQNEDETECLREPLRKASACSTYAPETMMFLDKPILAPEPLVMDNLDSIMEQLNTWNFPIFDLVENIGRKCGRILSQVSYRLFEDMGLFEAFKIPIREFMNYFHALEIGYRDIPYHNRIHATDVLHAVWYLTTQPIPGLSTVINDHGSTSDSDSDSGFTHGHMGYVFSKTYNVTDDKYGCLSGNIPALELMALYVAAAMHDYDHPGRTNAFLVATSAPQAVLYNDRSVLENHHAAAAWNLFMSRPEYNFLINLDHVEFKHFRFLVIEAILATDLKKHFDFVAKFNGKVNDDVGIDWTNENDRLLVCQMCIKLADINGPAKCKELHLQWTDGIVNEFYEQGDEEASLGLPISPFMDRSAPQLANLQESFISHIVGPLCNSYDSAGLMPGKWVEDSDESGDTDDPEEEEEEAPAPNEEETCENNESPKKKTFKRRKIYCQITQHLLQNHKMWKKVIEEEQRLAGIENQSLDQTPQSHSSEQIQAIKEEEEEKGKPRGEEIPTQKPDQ

[2] = test system: platelet aggregation in whole rat blood induced with collagen; assay: In vitro whole rat blood aggregation induced with collagen (Multiplate impedance aggregometry); format: cell-based; conditions: for Effect on collagen-induced platelet aggregation (in words): screened at 10 µM and 100 µM, whole rat blood (Figure 1); for Effect on collagen-induced platelet aggregation (in words) / Reduction of collagen-induced platelet aggregation: collagen 1.6 µg/mL; for Reduction of collagen-induced platelet aggregation: 100 µM compound, whole rat blood, screening (Figure 1); for IC50: Collagen [1.6 µg/mL], concentration inhibiting aggregation of whole rat blood in vitro by 50%
Procedure: (§1) To evaluate antiplatelet activities of the test compounds, freshly isolated rat whole blood was incubated with compound or vehicle, and the aggregation responses were assessed with a whole blood aggregometer by measuring impedance changes. Platelet aggregation was induced with collagen. First, compounds were screened for anti-aggregation effects at concentration of 10 µM and 100 µM (Figure 1). […] In vitro aggregation tests were conducted using freshly collected whole rat blood with a Multiplate platelet function analyzer (Roche Diagnostic, Mannheim, Germany), the five-channel aggregometer based on measurements of electric impedance, according to previous procedures. Upon activation, platelets adhere and progressively aggregate on a duplicate metal sensor in the analyzer test cuvette. This leads to a change in resistance, which is proportional to the number of platelets adhering to the electrodes. Blood was drawn from the carotid of rats with hirudin blood tubes (S-Monovette, Hirudin, Sarstedt, Germany). Then, 300 μL of hirudin anticoagulated blood was mixed with 300 μL prewarmed isotonic saline solution containing the studied compound or vehicle (DMSO 0.1%) and preincubated for 3 min at 37 °C with continuous stirring. The agonists (collagen, ADP) were diluted using deionized water. Aggregation was induced by adding collagen (final concentration 1.6 µg/mL) or ADP (final concentration 6.5 µM). […] Activated platelet function was recorded for 6 min. Multiplate software v. V2.05 was used to analyze the area under the curve (AUC) of the clotting process for each measurement and calculate the mean values.

human recombinant PDE2A [3] = molecular target: T2, human recombinant PDE2A (Homo sapiens, UniProt O00408); assay: PDE-Glo activity inhibition test, PDE2A; format: biochemical; conditions: cGMP substrate, read-out: IC50 (CV%) PDE2A
T2 construct: purchased SignalChem
T2 sequence (O00408 whole entry): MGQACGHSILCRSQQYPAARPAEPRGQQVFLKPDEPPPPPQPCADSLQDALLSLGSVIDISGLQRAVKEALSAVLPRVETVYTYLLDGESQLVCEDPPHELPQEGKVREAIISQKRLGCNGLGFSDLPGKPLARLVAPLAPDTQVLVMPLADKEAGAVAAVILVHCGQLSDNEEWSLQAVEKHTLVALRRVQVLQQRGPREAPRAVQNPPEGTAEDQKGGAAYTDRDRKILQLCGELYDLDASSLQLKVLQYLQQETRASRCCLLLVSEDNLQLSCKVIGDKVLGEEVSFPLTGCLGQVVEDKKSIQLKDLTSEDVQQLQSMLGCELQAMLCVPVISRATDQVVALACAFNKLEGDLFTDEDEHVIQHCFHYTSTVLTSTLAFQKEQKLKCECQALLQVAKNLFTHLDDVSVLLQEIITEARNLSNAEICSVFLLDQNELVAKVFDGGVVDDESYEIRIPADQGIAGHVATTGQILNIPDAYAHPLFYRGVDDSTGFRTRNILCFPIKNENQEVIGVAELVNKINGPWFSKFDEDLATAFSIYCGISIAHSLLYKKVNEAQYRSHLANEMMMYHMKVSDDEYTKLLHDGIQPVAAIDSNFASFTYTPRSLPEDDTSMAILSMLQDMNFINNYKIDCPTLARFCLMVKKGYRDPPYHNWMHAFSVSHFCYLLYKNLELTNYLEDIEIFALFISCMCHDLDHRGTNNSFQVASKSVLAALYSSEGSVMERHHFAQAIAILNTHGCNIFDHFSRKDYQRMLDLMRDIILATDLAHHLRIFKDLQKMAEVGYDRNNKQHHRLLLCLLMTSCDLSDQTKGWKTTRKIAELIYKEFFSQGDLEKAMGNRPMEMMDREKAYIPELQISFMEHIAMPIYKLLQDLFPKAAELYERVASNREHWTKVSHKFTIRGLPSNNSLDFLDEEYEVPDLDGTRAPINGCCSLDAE

human recombinant PDE5A [4] = molecular target: T3, human recombinant PDE5A (Homo sapiens, UniProt O76074); assay: PDE-Glo activity inhibition test, PDE5A; format: biochemical; conditions: cGMP substrate, read-out: IC50 (CV%) PDE5A
T3 construct: purchased SignalChem

hA1R = conditions: human A1 receptor; read-out: Ki ± SEM hA1R vs. [3H]CCPA; cited from earlier work
hA2BR = conditions: human A2B receptor; read-out: Ki ± SEM hA2BR vs. [3H]PSB-603; cited from earlier work
hA3R = conditions: human A3 receptor; read-out: Ki ± SEM hA3R vs. [3H]PSB-11; cited from earlier work
hA2AR = conditions: cited from earlier work
[5] = test system: platelet aggregation in whole rat blood induced by ADP; assay: In vitro whole rat blood aggregation induced with ADP (Multiplate impedance aggregometry); format: cell-based; conditions: ADP [6.5 μM], concentration inhibiting aggregation of whole rat blood in vitro by 50%
Procedure: as §1, with “In further experiments,” for “To evaluate antiplatelet activities of the test compounds, freshly isolated rat whole blood was incubated with compound or vehicle, and the aggregation responses were assessed with a whole blood aggregometer by measuring impedance changes. Platelet”, “ADP. In this model of aggregation, we tested the selected” for “collagen. First,”, “as well as IBMX as a positive control.” for “were screened for anti-aggregation effects at concentration of 10 µM and 100 µM (Figure 1).”

human recombinant PDE2A [6] = molecular target: T2, human recombinant PDE2A; parameters: method as in PMID 31705904; conditions: cited from earlier work
human recombinant PDE5A [7] = molecular target: T3, human recombinant PDE5A; parameters: method as in PMID 31705904; conditions: cited from earlier work

COc1ccccc1OCCNCC(O)COc1cccc2[nH]c3ccccc3c12 (stereo not shown) [Carvedilol, carvedilol, reference compound]
EC50 ([1]; carvedilol tested at 10–3000 μM, Figure 8, read-out: EC50 antioxidant action (lipid peroxidation)): 68.8 µM

O=C1CCc2cc(OCCCCc3nnnn3C3CCCCC3)ccc2N1 [Cilostazol, cilostazol, reference compound]
IC50 (human recombinant PDE3A): 0.0545 µM

CC1CCC(N2CCCn3c2nc2c3c(=O)n(C)c(=O)n2C)CC1 (stereo not shown) [KD-64, 1,3-dimethyl-9-(4-methylcyclohexyl)-pyrimido [2,1-f] purine-2,4-dione]
Effect on collagen-induced platelet aggregation (in words) [2]: did not affect platelet aggregation
IC50 (human recombinant PDE2A [3]): 27 µM
IC50 (human recombinant PDE3A): 10.3 µM
IC50 (human recombinant PDE5A [4]): > 100 µM
Ki (hA1R): > 1 µM
Ki (hA2BR): > 1 µM
Ki (hA3R): > 1 µM
Ki (hA2AR): 0.24 µM

CCn1c(=O)c2c(nc(NCc3c(Cl)ccc(OC)c3F)n2C)n(C)c1=O [MZ-1497, 8-((6-chloro-2-fluoro-3-methoxybenzyl)amino)-1-ethyl-3,7-dimethyl-purine-2,6-dione]
Effect on collagen-induced platelet aggregation (in words) [2]: did not affect platelet aggregation
IC50 (human recombinant PDE5A [4]): > 100 µM
Ki (hA1R): > 1 µM
Ki (hA2BR): > 1 µM
Ki (hA3R): > 1 µM
Ki (hA2AR): 0.0685 ± 0.0155 µM

C#CCn1c(=O)c2c(nc(OCc3ccccc3Br)n2C)n(C)c1=O [TB-42]
Reduction of collagen-induced platelet aggregation [2]: 56.8%
IC50 ([2]; Platelet): 69.3 ± 0.7 µM
IC50 [5]: 58.6 ± 35.6 µM
IC50 (human recombinant PDE5A [4]): 64.5 µM
Ki (hA1R): 0.357 ± 0.049 µM
Ki (hA2BR): > 1 µM
Ki (hA2AR): 0.059 ± 0.0102 µM

3,7-dimethyl-8-(3-phenylpropoxy)-1-(prop-2-yn-1-yl)--purine-2,6-dione [TB-46]
Effect on collagen-induced platelet aggregation (in words) [2]: did not affect platelet aggregation
IC50 (human recombinant PDE2A [3]): 9.85 µM
IC50 (human recombinant PDE3A): 0.58 µM
IC50 (human recombinant PDE5A [4]): 68.6 µM
Antioxidant activity at a concentration 10 times lower (in words) ([1]; concentration 10 times lower than 1000 µM): practically disappeared
Ki (hA1R): 0.158 ± 0.012 µM
Ki (hA2BR): 0.472 ± 0.174 µM
Ki (hA3R): > 1 µM
Ki (hA2AR): 0.0191 ± 0.0023 µM

CCCn1c(=O)[nH]c2nc(-c3ccc(S(=O)(=O)N4CCN(c5ccc(Cl)cc5)CC4)cc3)[nH]c2c1=O [PSB-603, 1-propyl-8-(4-((4-(4-chlorophenyl)piperazin-1-yl)sulfonyl)phenyl)-1H-purine-2,6(3H,7H)-dione]
Reduction of collagen-induced platelet aggregation [2]: 50.4%
Prevention of collagen-induced platelet aggregation ([2]; 100 µM, highest tested concentration, concentration series (Figure 2)): 54.12%
IC50 [2]: 98.6 ± 27 µM
IC50 ([2]; Rattus norvegicus, Platelet): ~100 µM
Effect on platelet activity at lower concentrations (in words) ([2]; concentrations below 100 µM, collagen 1.6 µg/mL (Figure 2)): did not markedly affect platelet activity
IC50 [5]: 82.9 ± 17 µM
IC50 (human recombinant PDE2A [3]): 50.1 µM
IC50 (human recombinant PDE3A): > 100 µM
Effect against PDE3A activity (in words) (human recombinant PDE3A; in the concentrations tested): did not display any detectable effects
IC50 (human recombinant PDE5A [4]): 39.7 µM
Ki (hA1R): > 1 µM
Ki (hA2BR): 0.000553 ± 0.000103 µM
Ki (hA3R): > 1 µM
Ki (hA2AR): > 1 µM

CCCCn1c(=O)[nH]c2nc(-c3ccc(S(=O)(=O)N4CCN(c5ccc(Cl)cc5)CC4)cc3)[nH]c2c1=O [PSB-23066, 1-butyl-8-(4-((4-(4-chlorophenyl)piperazin-1-yl)sulfonyl)phenyl)-1H-purine-2,6(3H,7H)-dione]
Effect on collagen-induced platelet aggregation (in words) [2]: did not affect platelet aggregation
IC50 (human recombinant PDE5A [4]): 45.8 µM
Ki (hA1R): > 1 µM
Ki (hA2BR): 0.000401 ± 0.000136 µM
Ki (hA3R): > 1 µM
Ki (hA2AR): > 1 µM

CCCCCC[C@@H]([C@@H](C)O)n1cnc2c(N)ncnc21 (racemic) [EHNA, erythro-9-(2-hydroxy-3-nonyl)adenine, reference compound]
IC50 (human recombinant PDE2A [3]): 8.22 µM

CC(C)Cn1c(=O)n(C)c(=O)c2[nH]cnc21 [IBMX, 1-methyl-3-isobutylxanthine, reference compound]
IC50 [2]: 98.8 ± 29.8 µM
IC50 ([2]; Rattus norvegicus, Platelet): ~100 µM
IC50 [5]: 18.5 ± 7.3 µM
IC50 (human recombinant PDE2A [6]): 9.22 µM
IC50 (human recombinant PDE5A [7]): 45.1 µM
